In the NIST ThermoML archive (doi:10.1016/j.jct.2018.12.031):

Test: xn = mol fraction of the nth substance listed
Conditions: 100 kPa, Liquid; for speed of sound: Frequency=3 MHz, Linear variable-path acoustic interferometer; for mass density: Pycnometric method

C=C(C)C(=O)OCC [ethyl 2-methylpropenoate] + N#Cc1ccccc1
Conditions | mass density [kg/m3] | speed of sound [m/s]
293.15 K, x2 = 0 | 912.3 | 1196.8
293.15 K, x2 = 0.0711 | 918.32 | 1212.4
293.15 K, x2 = 0.1419 | 924.37 | 1228
293.15 K, x2 = 0.2152 | 930.7 | 1244.1
293.15 K, x2 = 0.2872 | 936.99 | 1259.8
293.15 K, x2 = 0.3568 | 943.14 | 1274.9
293.15 K, x2 = 0.4307 | 949.76 | 1290.9
293.15 K, x2 = 0.4991 | 955.96 | 1306
293.15 K, x2 = 0.5752 | 962.96 | 1323.3
293.15 K, x2 = 0.6431 | 969.29 | 1339.2
293.15 K, x2 = 0.7177 | 976.35 | 1357.7
293.15 K, x2 = 0.7773 | 982.06 | 1373
293.15 K, x2 = 0.8576 | 989.86 | 1394.7
293.15 K, x2 = 0.9289 | 996.89 | 1414.8
298.15 K, x2 = 0 | 907.18 | 1176.9
298.15 K, x2 = 0.0711 | 913.3 | 1193
298.15 K, x2 = 0.1419 | 919.45 | 1208.9
298.15 K, x2 = 0.2152 | 925.88 | 1225
298.15 K, x2 = 0.2872 | 932.27 | 1240.7
298.15 K, x2 = 0.3568 | 938.52 | 1255.7
298.15 K, x2 = 0.4307 | 945.23 | 1271.6
298.15 K, x2 = 0.4991 | 951.53 | 1286.8
298.15 K, x2 = 0.5752 | 958.64 | 1304.2
298.15 K, x2 = 0.6431 | 965.07 | 1320
298.15 K, x2 = 0.7177 | 972.24 | 1338.5
298.15 K, x2 = 0.7773 | 978.04 | 1354
298.15 K, x2 = 0.8576 | 985.97 | 1375.9
298.15 K, x2 = 0.9289 | 993.11 | 1396.3
303.15 K, x2 = 0 | 902.06 | 1157.6
303.15 K, x2 = 0.0711 | 908.28 | 1174.2
303.15 K, x2 = 0.1419 | 914.53 | 1190.4
303.15 K, x2 = 0.2152 | 921.06 | 1206.4
303.15 K, x2 = 0.2872 | 927.55 | 1222.1
303.15 K, x2 = 0.3568 | 933.89 | 1237.4
303.15 K, x2 = 0.4307 | 940.7 | 1253.4
303.15 K, x2 = 0.4991 | 947.1 | 1268.4
303.15 K, x2 = 0.5752 | 954.32 | 1285.8
303.15 K, x2 = 0.6431 | 960.85 | 1301.7
303.15 K, x2 = 0.7177 | 968.13 | 1320.4
303.15 K, x2 = 0.7773 | 974.02 | 1336
303.15 K, x2 = 0.8576 | 982.07 | 1358.2
303.15 K, x2 = 0.9289 | 989.33 | 1379.1
308.15 K, x2 = 0 | 896.94 | 1139.4
308.15 K, x2 = 0.0711 | 903.26 | 1156.4
308.15 K, x2 = 0.1419 | 909.61 | 1172.7
308.15 K, x2 = 0.2152 | 916.24 | 1188.9
308.15 K, x2 = 0.2872 | 922.82 | 1204.6
308.15 K, x2 = 0.3568 | 929.26 | 1219.8
308.15 K, x2 = 0.4307 | 936.17 | 1236
308.15 K, x2 = 0.4991 | 942.67 | 1251.3
308.15 K, x2 = 0.5752 | 949.99 | 1268.7
308.15 K, x2 = 0.6431 | 956.62 | 1284.7
308.15 K, x2 = 0.7177 | 964.02 | 1303.5
308.15 K, x2 = 0.7773 | 970 | 1319.3
308.15 K, x2 = 0.8576 | 978.17 | 1341.8
308.15 K, x2 = 0.9289 | 985.54 | 1362.6
313.15 K, x2 = 0 | 891.83 | 1121.5
313.15 K, x2 = 0.0711 | 898.24 | 1138.9
313.15 K, x2 = 0.1419 | 904.68 | 1155.3
313.15 K, x2 = 0.2152 | 911.41 | 1171.7
313.15 K, x2 = 0.2872 | 918.09 | 1187.4
313.15 K, x2 = 0.3568 | 924.62 | 1202.7
313.15 K, x2 = 0.4307 | 931.64 | 1218.9
313.15 K, x2 = 0.4991 | 938.23 | 1234.1
313.15 K, x2 = 0.5752 | 945.66 | 1251.8
313.15 K, x2 = 0.6431 | 952.39 | 1268.2
313.15 K, x2 = 0.7177 | 959.9 | 1287.3
313.15 K, x2 = 0.7773 | 965.97 | 1303.5
313.15 K, x2 = 0.8576 | 974.27 | 1326.1
313.15 K, x2 = 0.9289 | 981.75 | 1347.2
318.15 K, x2 = 0 | 886.71 | 1104.6
318.15 K, x2 = 0.0711 | 893.22 | 1122.5
318.15 K, x2 = 0.1419 | 899.75 | 1139.1
318.15 K, x2 = 0.2152 | 906.58 | 1155.6
318.15 K, x2 = 0.2872 | 913.35 | 1171.4
318.15 K, x2 = 0.3568 | 919.98 | 1186.5
318.15 K, x2 = 0.4307 | 927.11 | 1202.7
318.15 K, x2 = 0.4991 | 933.79 | 1217.9
318.15 K, x2 = 0.5752 | 941.33 | 1235.6
318.15 K, x2 = 0.6431 | 948.16 | 1252.3
318.15 K, x2 = 0.7177 | 955.78 | 1271.8
318.15 K, x2 = 0.7773 | 961.94 | 1288.2
318.15 K, x2 = 0.8576 | 970.37 | 1311.3
318.15 K, x2 = 0.9289 | 977.96 | 1332.3
